# From patent publication US9532983B2, “Benzofuran compounds, compositions, kits and/or methods thereof” (Savannah State University, priority 2013, dated 2017)
# “Also recorded” adds a separate entry of the source.
# What was measured:
# 5-HT2A = molecular target: T1, 5-HT2A (Homo sapiens, UniProt P28223); assay: Primary binding assay at non-sigma receptors: 5-HT2A; details: 10 μM (final) assay concentration
# T1 construct: expressed in transfected cells
# Experimental: (§1) Initial primary binding screening assays were performed using a 50 μM (initial)−10 μM (final) assay concentration of reference and test compounds.
# 5HT3 = molecular target: T2, 5HT3 (Homo sapiens, UniProt P46098); assay: Primary binding assay at non-sigma receptors: 5HT3; details: 10 μM (final) assay concentration
# T2 construct: expressed in transfected cells
# T2 sequence (P46098 24-478): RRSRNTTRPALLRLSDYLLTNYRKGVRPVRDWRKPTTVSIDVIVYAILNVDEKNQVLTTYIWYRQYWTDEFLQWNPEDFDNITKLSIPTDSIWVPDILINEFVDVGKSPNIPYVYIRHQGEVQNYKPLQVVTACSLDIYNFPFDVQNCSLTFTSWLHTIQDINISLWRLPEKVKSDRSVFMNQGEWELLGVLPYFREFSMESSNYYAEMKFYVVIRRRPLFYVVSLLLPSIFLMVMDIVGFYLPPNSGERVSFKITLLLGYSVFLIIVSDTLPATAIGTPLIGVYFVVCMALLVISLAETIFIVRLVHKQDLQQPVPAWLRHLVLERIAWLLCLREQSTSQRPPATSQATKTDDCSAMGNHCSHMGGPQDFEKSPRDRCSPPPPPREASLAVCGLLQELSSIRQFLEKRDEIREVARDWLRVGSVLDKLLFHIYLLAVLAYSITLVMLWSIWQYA
# Experimental: as §1
# [1] = Cell viability assay (MTT) in MA-10 cells; format: cell-based, mouse; details: mouse, MA-10 Leydig cells, read-out: decrease in cell viability
# Experimental: (§2) Mouse Leydig cell line (MA-10) was grown in Waymouth media containing 15% horse serum, 5% fetal bovine serum, and 1× gentamycin, which was replaced with […] G418 (geneticin) for VDAC1 knockdown (ΔVDAC1) MA10 cells. Cells were maintained at 37° C. in a humidified incubator under 5% CO2. To isolate mitochondria, cells were removed from tissue culture plates by gentle scrapping in phosphate-buffered saline at room temperature, incubated in hypotonic buffer (10 mM HEPES, pH 7.4) for 30 to 40 min, and mitochondria were isolated following readily available procedures. The mitochondrial preparation was verified by Western blotting with the cytochrome P450 SCC enzyme (Corgen, Tapai, Taiwan) and calnexin antibodies (Santa Cruz Biotechnology, Inc., Santa Cruz, Calif.).
# Stock solutions (1 mM) of the ligands were made in 1× phosphate buffered saline, filter-sterilized, and then further diluted up to 1 μM with serum-free medium. Cell viability was determined by the 3-[4,5-dimethylthiazol-2yl]-2,5-diphenyltetrazolium bromide assay using a commercially available kit following the manufacturer's instructions (Promega, Madison, Wis.). MA-10 cells were plated in a 96-well plate at an initial density of 4×10^3 cells per well for 24 h at 37° C. in 5% CO2 atm. After 24 h of serum starvation, the culture media were changed to serum-free media containing 1, 5, 10, 50, and 100 nM concentration for each KSCM ligand. Next, the cells were incubated for 2 to 3 h with 0.5 mg/ml of 3-[4,5-dimethylthiazol-2yl]-2,5-diphenyltetrazolium bromide reagent and lysed with dimethyl sulfoxide, and the absorbance was measured at 550 nm (FlexStation 3; Molecular Devices, Sunnyvale, Calif.).
# σ1 receptor = assay: Western blot, expression of σ1 receptor in MA-10 cells; format: cell-based, mouse; details: 24 h, increasing concentrations
# Experimental: Cells were maintained at 37° C. in a humidified incubator under 5% CO2. To isolate mitochondria, cells were removed from tissue culture plates by gentle scrapping in phosphate-buffered saline at room temperature, incubated in hypotonic buffer (10 mM HEPES, pH 7.4) for 30 to 40 min, and mitochondria were isolated following readily available procedures. The mitochondrial preparation was verified by Western blotting with the cytochrome P450 SCC enzyme (Corgen, Tapai, Taiwan) and calnexin antibodies (Santa Cruz Biotechnology, Inc., Santa Cruz, Calif.).
# (§3) The membrane was blocked with 3% nonfat dry milk for 45 min, probed overnight with the primary antibodies, and then incubated with […] goat anti-rabbit or anti mouse IgG (Thermo Fisher Scientific, Waltham, Mass.). Signals were developed with chemiluminescent reagent (Thermo Fisher Scientific). For loading control of all Western blots, the membrane was stained with β-actin antibody, which was previously independently stained with StAR or 3-β-hydroxysteroid dehydrogenase (3βHSD2) or VDAC1 and VDAC2 antiserum. The band intensity was determined by using Image Quant 5.2 (Phosphorimager; GE Healthcare, Chalfont St. Giles, Buckinghamshire, UK). Densitometric calculation may reflect the ratio of σ1 or VDAC2 and β-actin following an established procedure that is readily available.
# (§4) In addition, VDAC2 antibody (FIG. 3E) was used to probe and was compared with β-actin expression (FIG. 3F) of the same membrane.
# 3βHSD2 = assay: Western blot, expression of 3βHSD2 in MA-10 cells; format: cell-based, mouse; details: any concentration
# Experimental: as §2
# as §3, with “Protein (12.5 μg) was separated by 15% SDS-polyacrylamide gel electrophoresis and transferred to a polyvinylidinedifluoride membrane (Millipore Corporation, Billerica, Mass.). The membrane” for “The membrane”
# as §4
# VDAC2 = assay: Western blot / densitometry, expression of VDAC2 in MA-10 cells; format: cell-based, mouse; details: increasing concentrations
# Experimental: as §2
# as §3, with “Protein (12.5 μg) was separated by 15% SDS-polyacrylamide gel electrophoresis and transferred to a polyvinylidinedifluoride membrane (Millipore Corporation, Billerica, Mass.). The membrane” for “The membrane”
# as §4
# [2] = tested on: mitochondria from steroidogenic MA-10 cells; assay: Metabolic conversion of [3H]pregnenolone to progesterone in isolated MA-10 mitochondria; format: biochemical, mouse
# Experimental: as §2
# To measure the conversion of [^3H]pregnenolone to [^3H]progesterone, isolated mitochondria from steroidogenic MA-10 cells (300 μg) were incubated in phosphate buffer along with the substrate, and the reaction was initiated by the NAD. For metabolic conversion of [^14C]cholesterol to pregnenolone, the reaction was initiated by the addition of NADPH, and for complete conversion we used 5-fold excess of cold carrier to reach the saturation point. The steroids were extracted with ether/acetone (9:1 v/v), and equal amounts of a cold pregnenolone-progesterone (50:50; Sigma, St. Louis, Mo.) mixture in CH2C12 was added as a carrier. The extracts were concentrated under a stream of nitrogen or air and then separated by thin-layer chromatography (TLC) (Whatman, Clifton, N.J.) using a chloroform/ethyl acetate (3:1) mobile phase.
# Given the potential role of σ1 in steroidogenesis (FIG. 4A), we performed conversion assays in the presence of three sigma receptor ligands. […] The possibility exists that the σ1 receptor transiently interacts with the OMM-associated porins. As such, the increased levels of σ1 receptor with KSCM-11 may enhance the transport of substrate cholesterol into the mitochondria, thereby increasing progesterone synthesis.
# [3] = higher concentrations than 10 nM
# T1 sequence (P28223 whole entry): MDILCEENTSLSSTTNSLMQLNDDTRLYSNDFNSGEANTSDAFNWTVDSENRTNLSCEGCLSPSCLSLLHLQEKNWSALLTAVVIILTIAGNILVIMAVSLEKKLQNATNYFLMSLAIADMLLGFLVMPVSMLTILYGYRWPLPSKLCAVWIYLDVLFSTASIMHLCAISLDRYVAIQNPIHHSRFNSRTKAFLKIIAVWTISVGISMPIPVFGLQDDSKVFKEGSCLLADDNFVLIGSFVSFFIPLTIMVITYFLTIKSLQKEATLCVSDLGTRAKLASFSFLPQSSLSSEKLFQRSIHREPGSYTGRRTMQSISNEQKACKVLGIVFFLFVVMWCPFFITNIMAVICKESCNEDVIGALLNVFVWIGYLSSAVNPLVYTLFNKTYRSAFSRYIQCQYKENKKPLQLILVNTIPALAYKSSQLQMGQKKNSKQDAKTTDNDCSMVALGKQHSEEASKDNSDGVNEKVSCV
Compound,inhibition at 10 µM (5-HT2A) [%],inhibition at 10 µM (5HT3) [%],cytotoxicity at 24 h ([1]; 1-5 nM) [%],expression of the σ1 receptor (in words) (σ1 receptor),level of 3βHSD2 (in words) (3βHSD2),expression of VDAC2 (in words) (VDAC2),effect on progesterone conversion (in words) ([2]; 10 nM),"effect on progesterone conversion (in words) [2, 3]","cytotoxicity at 24 h, 1 nM [1] [%]","cytotoxicity at 24 h, 100 nM [1] [%]"
"COc1ccc2c(C)c(C(=O)N(CCCN3CCCCC3)c3ccccc3)oc2c1 [KSCM-11, 6-Methoxy-3-methyl-N-phenyl-N-(3-(piperidin-1-yl)propyl)benzofuran-2-carboxamide]",61.2,7.3,3.3,increased expression; also recorded: moderately increased,no change,decreased with increasing concentrations,no effect,conversion decreased significantly,,
"Cc1c(C(=O)N(CCCN2CCCCC2)c2ccccc2)oc2ccccc12 [KSCM-5, 3-Methyl-N-phenyl-N-(3-(piperidin-1-yl)propyl)benzofuran-2-carboxamide]",18.1,2.9,,increased only minimally; also recorded: remained unchanged,no change,decreased with increasing concentrations,no effect,conversion decreased significantly,28,74
"COc1cc2oc(C(=O)N(CCCN3CCCCC3)c3ccccc3)c(C)c2cc1OC [KSCM-1, 5,6-Dimethoxy-3-methyl-N-phenyl-N-(3-(piperidin-1-yl)propyl)benzofuran-2-carboxamide]",76.6,64.2,,increased expression; also recorded: increased with increasing concentrations,no change,increased with increasing concentrations,,reduced conversion to the basal level,3.5,16
